# Assay results reported in patent US8822485B2, “Amino heteroaryl compounds as beta-secretase modulators and methods of use” (Amgen Inc., priority 2010, dated 2014).
# Assays:
# [1] = system: Aβ40 in conditioned medium of cells stably expressing Amyloid Precursor Protein (APP) (HEK cell); assay: In vitro BACE cell-based assay (HEK cell assay, Aβ40 sandwich ELISA); conditions: Homo sapiens, HEK293; IC50 range class; inhibition of Aβ40 after 24 h incubation
# Protocol: In Vitro BACE Cell-Based Assay:
# The cell-based assay measures inhibition or reduction of Aβ40 □ in conditioned medium of test compound treated cells expressing amyloid precursor protein.
# Cells stably expressing Amyloid Precursor Protein (APP) were plated at a density of 40K cells/well in 96 well plates (Costar). The cells were cultivated for 24 hours at 37° C. and 5% CO2 in DMEM supplemented with 10% FBS. The test compounds were then added to cells in 10-point dose response concentrations with the starting concentration being either 100 μM or 10 μM. The compounds were diluted from stock solutions in DMSO and the final DMSO concentration of the test compounds on cells was 0.1%. After 24 h of incubation with the test compounds the supernatant conditioned media was collected and the Aβ 40 levels were determined using a sandwich ELISA. The IC50 of the compound was calculated from the percent of control or percent inhibition of Aβ40 as a function of the concentration of the test compound.
# The sandwich ELISA to detect Aβ 40 was performed in 96 well microtiter plates, which were pre-treated with goat anti-rabbit IgG (Pierce). The capture and detecting antibody pair that were used to detect Aβ 40 from cell supernatants were affinity purified pAb40 (Biosource) and biotinylated 6E10 (Signet Labs Inc.), respectively. The optimal concentration for the pAb40 antibody was 3 μg/ml in Superblock/TBS (Pierce) that was supplemented with 0.05% Tween 20 (Sigma). Optimal concentration for the detection antibody 6E10-biotinylated was 0.5 μg/ml in Superblock/TBS (Pierce) that had been supplemented with 2% normal goat serum and 2% normal mouse serum.
# Cellular supernatants were incubated with the capture antibody for 3 h at 4° C., followed by 3 wash steps in TBS-tween (0.05%). The detecting antibody incubation was for 2 h at 4° C., again followed by the wash steps as described previously. The final readout of the ELISA is Time-Resolved Fluorescence (counts per minute) using Delfia reagents Streptavidin-Europium and Enhancement solutions (Perkin Elmer) and the Victor 2 multilabel counter (Perkin Elmer).
# Of the compounds tested, the cell based assay data for each of Examples 1-33, where available at the time of filing this application, is provided in Table 1.
# BACE1 = BACE1 (Homo sapiens, UniProt P56817); assay: In vitro enzymatic BACE FRET assay; type: biochemical; conditions: IC50 range class; 0.2 nM enzyme, 50 nM FRET substrate, pH 4.2
# BACE1, sequence (P56817 46-501, species assumed): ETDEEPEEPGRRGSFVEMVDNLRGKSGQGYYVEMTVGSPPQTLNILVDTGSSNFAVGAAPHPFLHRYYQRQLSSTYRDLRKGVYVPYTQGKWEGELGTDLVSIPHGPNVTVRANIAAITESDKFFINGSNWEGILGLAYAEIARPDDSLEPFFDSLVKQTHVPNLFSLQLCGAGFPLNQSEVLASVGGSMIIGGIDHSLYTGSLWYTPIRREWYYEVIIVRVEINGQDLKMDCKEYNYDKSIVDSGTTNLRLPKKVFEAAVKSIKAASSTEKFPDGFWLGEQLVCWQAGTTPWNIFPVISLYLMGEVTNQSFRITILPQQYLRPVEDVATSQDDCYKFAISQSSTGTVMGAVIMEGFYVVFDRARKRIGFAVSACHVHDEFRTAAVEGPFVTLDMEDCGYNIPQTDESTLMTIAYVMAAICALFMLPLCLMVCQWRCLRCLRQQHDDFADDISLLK
# Protocol: In Vitro Enzymatic BACE FRET (Fluorescence Resonance Energy Transfer) Assay (Enzyme Assay Data in Table 1)
# The assay buffer used in this screen is 0.05 M acetate, pH 4.2, 10% DMSO final, 100 uM genapol (which is a nonionic detergent, below its Critical Micelle Concentration). The Beta Secretase enzyme (0.2 nM) is pre-incubated for one hour with inhibitors, typically in about 1 uL of DMSO according to a serial dilution, are added thereto. The assay is effectively started by the addition of FRET substrate (50 nM) and the combination is incubated for one hour. The FRET assay is terminated with by addition of Tris buffer, which raises the pH to neutrality, and the fluorescence is determined. The FRET substrate is a peptide with commercially available fluorophore and quencher, on opposite sides of the BACE cleavage site. Proteolytic cleavage of the FRET substrate releases quenching of fluorescence (excitation […] and […]).
# Of the compounds tested, the in-vitro BACE FRET enzyme data for each of Examples 1-33, where available at the time of filing this application, is provided in Table 1.
SMILES,IC50 [1] [nM],IC50 (BACE1) [nM]
"Cc1ccccc1-c1ccc2nc(N)c(CCc3cncc(CC(C)C)c3)cc2c1 [Example 18, 3-(2-(5-isobutylpyridin-3-yl)ethyl)-6-o-tolylquinolin-2-amine]",1000 to 5000,100 to 1000
"Cc1ccccc1-c1ccc2nc(N)c(CCc3cnn(Cc4ccccc4)c3)cc2c1 [Example 19, 3-(2-(1-benzyl-1H-pyrazol-4-yl)ethyl)-6-o-tolylquinolin-2-amine]",1000 to 5000,100 to 1000
"Cc1cccnc1-c1ccc2nc(N)c(CCc3cc(C4CCOCC4)ncn3)cc2c1 [Example 20, 6-(3-methylpyridin-2-yl)-3-(2-(6-(tetrahydro-2H-pyran-4-yl)pyrimidin-4-yl)ethyl)quinolin-2-amine]",1000 to 5000,100 to 1000
"Cc1ccccc1-c1ccc2nc(N)c(CCc3cncc(CC(C)(C)C)c3)cc2c1 [Example 21, 3-(2-(5-neopentylpyridin-3-yl)ethyl)-6-o-tolylquinolin-2-amine]",> 5000,100 to 1000
"Cc1ccccc1-c1ccc2nc(N)c(CCc3cncc(CCC(C)(C)C)c3)cc2c1 [Example 22, 3-(2-(5-(3,3-dimethylbutyl)pyridin-3-yl)ethyl)-6-o-tolylquinolin-2-amine]",> 5000,100 to 1000
"Cc1ccccc1-c1ccc2nc(N)c(CCc3cccc(C(F)(F)F)c3)cc2c1 [Example 23, 6-o-tolyl-3-(3-(trifluoromethyl)phenethyl)quinolin-2-amine]",> 5000,1000 to 5000
"Cc1ccccc1-c1ccc2nc(N)c(C=Cc3cnn(C4CCCCC4)c3)cc2c1 [Example 24, 3-(2-(1-cyclohexyl-1H-pyrazol-4-yl)vinyl)-6-o-tolylquinolin-2-amine]",> 5000,1000 to 5000
"Cc1ccccc1-c1ccc2nc(N)c(CCc3cnn(C4CCCCC4)c3)cc2c1 [Example 25, 3-(2-(1-cyclohexyl-1H-pyrazol-4-yl)ethyl)-6-o-tolylquinolin-2-amine]",1000 to 5000,< 100
"Cc1ccccc1-c1ccc2nc(N)c(CC(C)c3cncc(C4CCCCO4)c3)cc2c1 (centres unmarked) [Example 26, 3-(2-(5-(tetrahydro-2H-pyran-2-yl)pyridin-3-yl)propyl)-6-o-tolylquinolin-2-amine]",1000 to 5000,100 to 1000
"Cc1ccccc1-c1ccc2nc(N)c(CC(C)c3cncc(C4CCCCC4)c3)cc2c1 (centres unmarked) [Example 27, 3-(2-(5-cyclohexylpyridin-3-yl)propyl)-6-o-tolylquinolin-2-amine]",> 5000,< 100
"Cc1ccccc1-c1ccc2nc(N)c(CCc3cnco3)cc2c1 [Example 28, 3-(2-(oxazol-5-yl)ethyl)-6-o-tolylquinolin-2-amine]",> 5000,1000 to 5000
"Cc1ccccc1-c1ccc2nc(N)c(CCc3ccccn3)cc2c1 [Example 29, 3-(2-(pyridin-2-yl)ethyl)-6-o-tolylquinolin-2-amine]",> 5000,1000 to 5000
"Cc1ccccc1-c1ccc2nc(N)c(CC(C)c3cncc(C4CCCC4)c3)cc2c1 (centres unmarked) [Example 30, 3-(2-(5-cyclopentylpyridin-3-yl)propyl)-6-o-tolylquinolin-2-amine]",1000 to 5000,< 100
"Cc1ccccc1-c1ccc2nc(N)c(CCc3cncc(C4CCCCO4)c3)cc2c1 (centres unmarked) [Example 31, 3-(2-(5-(tetrahydro-2H-pyran-2-yl)pyridin-3-yl)ethyl)-6-o-tolylquinolin-2-amine]",1000 to 5000,100 to 1000
"Cc1cccc(C(=O)N2CCCC2)c1-c1ccc2nc(N)c(CCc3cncnc3)cc2c1 [Example 33, (2-(2-amino-3-(2-(pyrimidin-5-yl)ethyl)quinolin-6-yl)-3-methylphenyl)(pyrrolidin-1-yl)methanone]",< 500,< 100
"Cc1cccc(C(=O)N2CCCC2)c1-c1ccc2nc(N)c(COc3cc(C(F)(F)F)ncn3)cc2c1 [Example 34, (2-(2-amino-3-((6-(trifluoromethyl)pyrimidin-4-yloxy)methyl)quinolin-6-yl)-3-methylphenyl)(pyrrolidin-1-yl)methanone]",1000 to 5000,100 to 1000
